BindingDB's records for doi:10.1016/j.bmcl.2019.04.009 (Wannan Medical College, 2019)

Target: Epidermal growth factor receptor (Homo sapiens, UniProt P00533)
Assay: Inhibition of EGFR L858R mutant (unknown origin) using polyE4Y1 as substrate measured after 60 mins

Epidermal growth factor receptor, sequence (P00533 25-1210 L858R limits assumed): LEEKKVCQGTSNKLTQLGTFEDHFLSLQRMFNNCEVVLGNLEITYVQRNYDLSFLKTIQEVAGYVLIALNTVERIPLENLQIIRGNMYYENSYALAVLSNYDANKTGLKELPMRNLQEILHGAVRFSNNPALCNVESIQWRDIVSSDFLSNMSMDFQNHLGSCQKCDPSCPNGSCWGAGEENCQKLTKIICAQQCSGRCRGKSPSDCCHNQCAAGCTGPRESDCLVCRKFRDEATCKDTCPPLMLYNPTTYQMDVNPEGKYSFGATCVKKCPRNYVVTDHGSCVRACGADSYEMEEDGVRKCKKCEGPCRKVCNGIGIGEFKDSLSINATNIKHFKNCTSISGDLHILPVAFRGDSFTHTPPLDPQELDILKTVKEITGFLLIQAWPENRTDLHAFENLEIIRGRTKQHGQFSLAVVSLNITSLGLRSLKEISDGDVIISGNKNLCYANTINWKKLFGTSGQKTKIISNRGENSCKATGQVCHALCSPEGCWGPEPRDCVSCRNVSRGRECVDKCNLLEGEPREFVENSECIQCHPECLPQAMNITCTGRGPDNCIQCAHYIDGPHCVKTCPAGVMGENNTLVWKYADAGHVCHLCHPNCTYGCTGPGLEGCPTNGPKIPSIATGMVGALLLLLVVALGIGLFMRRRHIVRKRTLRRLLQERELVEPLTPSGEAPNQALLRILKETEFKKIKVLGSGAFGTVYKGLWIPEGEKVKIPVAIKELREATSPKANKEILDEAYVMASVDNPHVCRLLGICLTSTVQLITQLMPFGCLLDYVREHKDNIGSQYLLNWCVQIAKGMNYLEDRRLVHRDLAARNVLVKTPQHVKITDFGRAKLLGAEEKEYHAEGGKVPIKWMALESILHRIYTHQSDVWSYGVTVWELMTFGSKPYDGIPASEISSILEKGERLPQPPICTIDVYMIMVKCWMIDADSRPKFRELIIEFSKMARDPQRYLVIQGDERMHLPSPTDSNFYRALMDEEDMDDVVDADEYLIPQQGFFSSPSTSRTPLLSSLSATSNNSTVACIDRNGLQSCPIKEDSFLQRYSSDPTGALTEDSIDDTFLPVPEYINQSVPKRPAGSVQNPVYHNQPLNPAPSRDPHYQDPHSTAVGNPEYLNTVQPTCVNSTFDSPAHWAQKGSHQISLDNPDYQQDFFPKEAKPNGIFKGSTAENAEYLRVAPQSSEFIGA

- IC50: 56 nM
SMILES: C[C@H]1[C@H](C)CC[C@]2(C(=O)O)CC[C@]3(COC(=O)/C=C/c4ccc(O)cc4)C(=CC[C@@H]4[C@@]5(C)CC[C@H](O)C(C)(C)[C@@H]5CC[C@]43C)[C@H]12 [27-trans-p-coumaroyloxyursolic acid]
